{"source": "ChEMBL document CHEMBL2406986", "about": "“Correlation of hydrogen-bonding propensity and anticancer profile of tetrazole-tethered combretastatin analogues” (Bioorg Med Chem Lett, 2013)", "key": {"Bos taurus": {"species_on_record": "Bos taurus", "assay": "Displacement of [3H]colchicine from bovine brain tubulin at 5 uM after 10 mins relative to control"}, "[1]": {"assay": "Inhibition of bovine brain tubulin assembly preincubated for 15 mins followed by GTP addition measured for 20 mins by spectrophotometric analysis", "set-up": "species or system Bos taurus"}, "[2]": {"assay": "Cytotoxicity against human H1299 cells assessed as growth inhibition after 48 hrs by MTT assay", "assay_type": "functional, cell-based", "conditions": "NCI-H1299, 48 h"}, "MCF7": {"test_system": "MCF7", "assay": "Cytotoxicity against human MCF7 cells assessed as growth inhibition after 48 hrs by MTT assay", "assay_type": "functional, cell-based", "conditions": "MCF7, 48 h"}, "A549": {"test_system": "A549", "assay": "Cytotoxicity against human A549 cells assessed as growth inhibition after 48 hrs by MTT assay", "assay_type": "functional, cell-based", "conditions": "A549, 48 h"}, "HeLa": {"test_system": "HeLa", "assay": "Cytotoxicity against human HeLa cells assessed as growth inhibition after 48 hrs by MTT assay", "assay_type": "functional, cell-based"}}}
{"molecule": "COc1ccc(-c2nnnn2-c2cc(OC)c(OC)c(OC)c2)c(O)c1", "values": [{"measurement": "inhibition", "setting": "Bos taurus", "result": 52, "unit": "%"}, {"measurement": "IC50", "setting": "[1]", "result": 2.7, "unit": "µM"}, {"measurement": "IC50", "setting": "[2]", "result": 7.9, "unit": "µM"}, {"measurement": "IC50", "setting": "MCF7", "result": 8.2, "unit": "µM"}, {"measurement": "IC50", "setting": "A549", "result": 6.4, "unit": "µM"}, {"measurement": "IC50", "setting": "HeLa", "result": 2.4, "unit": "µM"}]}
{"molecule": "COc1ccc(-c2nnnn2-c2cc(OC)c(OC)c(OC)c2O)cc1", "values": [{"measurement": "IC50", "setting": "[1]", "result": "> 20", "unit": "µM"}, {"measurement": "IC50", "setting": "[2]", "result": 40, "unit": "µM"}, {"measurement": "IC50", "setting": "MCF7", "result": 72, "unit": "µM"}, {"measurement": "IC50", "setting": "A549", "result": "> 100", "unit": "µM"}, {"measurement": "IC50", "setting": "HeLa", "result": 92, "unit": "µM"}]}
{"molecule": "COc1ccc(-c2nnnn2-c2cc(OC)c(OC)c(OC)c2)c(O)c1N", "values": [{"measurement": "inhibition", "setting": "Bos taurus", "result": 69, "unit": "%"}, {"measurement": "IC50", "setting": "[1]", "result": 2.2, "unit": "µM"}, {"measurement": "IC50", "setting": "[2]", "result": 4, "unit": "µM"}, {"measurement": "IC50", "setting": "MCF7", "result": 2.9, "unit": "µM"}, {"measurement": "IC50", "setting": "A549", "result": 0.52, "unit": "µM"}, {"measurement": "IC50", "setting": "HeLa", "result": 0.9, "unit": "µM"}]}
{"molecule": "COc1ccc(-c2nnnn2-c2cc(OC)c(OC)c(OC)c2O)c(O)c1", "values": [{"measurement": "IC50", "setting": "[1]", "result": "> 20", "unit": "µM"}, {"measurement": "IC50", "setting": "[2]", "result": 49, "unit": "µM"}, {"measurement": "IC50", "setting": "MCF7", "result": 46, "unit": "µM"}, {"measurement": "IC50", "setting": "A549", "result": 50, "unit": "µM"}, {"measurement": "IC50", "setting": "HeLa", "result": 45, "unit": "µM"}]}
{"molecule": "COc1ccc(/C=C\\c2cc(OC)c(OC)c(OC)c2)cc1O", "note": "[COMBRETASTATIN A4]", "values": [{"measurement": "IC50", "setting": "[2]", "result": 0.0062, "unit": "µM"}, {"measurement": "IC50", "setting": "MCF7", "result": 0.098, "unit": "µM"}, {"measurement": "IC50", "setting": "A549", "result": 0.28, "unit": "µM"}]}
{"molecule": "COc1ccc(-c2nnnn2-c2cc(OC)c(OC)c(OC)c2)c(O)c1O", "values": [{"measurement": "inhibition", "setting": "Bos taurus", "result": 62, "unit": "%"}, {"measurement": "IC50", "setting": "[1]", "result": 2.5, "unit": "µM"}, {"measurement": "IC50", "setting": "[2]", "result": 8.8, "unit": "µM"}, {"measurement": "IC50", "setting": "MCF7", "result": 6.6, "unit": "µM"}, {"measurement": "IC50", "setting": "A549", "result": 6.7, "unit": "µM"}, {"measurement": "IC50", "setting": "HeLa", "result": 0.95, "unit": "µM"}]}
